ChEMBL document CHEMBL5113505 (Eur J Med Chem, 2022)

Columns and labels:
[1] = target: Mitogen-activated protein kinase kinase kinase 20 (Homo sapiens) (UniProt Q9NYL2); experiment: Binding affinity to ZAK (unknown origin) assessed as percent of control at 100 nM by Kinomescan method relative to control
[2] = target: T1, Dual specificity mitogen-activated protein kinase kinase 7 (Homo sapiens) (UniProt O14733); experiment: Binding affinity to MKK7 (unknown origin) assessed as percent of control at 100 nM by Kinomescan method relative to control
T1 sequence (whole entry): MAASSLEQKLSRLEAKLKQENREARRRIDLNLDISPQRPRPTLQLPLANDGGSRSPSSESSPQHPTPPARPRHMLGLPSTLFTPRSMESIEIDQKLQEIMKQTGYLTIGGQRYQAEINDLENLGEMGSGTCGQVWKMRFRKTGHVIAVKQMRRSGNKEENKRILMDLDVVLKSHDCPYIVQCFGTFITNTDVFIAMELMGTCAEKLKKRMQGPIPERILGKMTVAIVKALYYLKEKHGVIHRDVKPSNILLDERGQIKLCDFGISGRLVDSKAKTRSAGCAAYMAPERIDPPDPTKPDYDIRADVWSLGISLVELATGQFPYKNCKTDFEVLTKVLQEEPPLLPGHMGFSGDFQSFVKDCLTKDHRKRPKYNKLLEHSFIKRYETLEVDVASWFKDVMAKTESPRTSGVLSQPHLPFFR

[3] = target: T2, Dual specificity mitogen-activated protein kinase kinase 6 (Homo sapiens, UniProt P52564); experiment: Inhibition of MKK6 (unknown origin)
T2 sequence (P52564 whole entry): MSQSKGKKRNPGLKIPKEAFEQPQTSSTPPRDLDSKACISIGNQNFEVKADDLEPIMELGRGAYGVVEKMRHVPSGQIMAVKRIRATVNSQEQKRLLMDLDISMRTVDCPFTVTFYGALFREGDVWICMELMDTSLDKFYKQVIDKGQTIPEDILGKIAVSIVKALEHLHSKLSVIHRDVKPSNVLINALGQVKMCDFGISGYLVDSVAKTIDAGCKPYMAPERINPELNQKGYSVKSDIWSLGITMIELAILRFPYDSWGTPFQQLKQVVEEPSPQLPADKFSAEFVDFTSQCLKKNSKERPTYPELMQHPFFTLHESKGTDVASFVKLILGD

Chain of Mitogen-activated protein kinase kinase kinase 20 (Homo sapiens) (Q9NYL2 2-800 limits assumed): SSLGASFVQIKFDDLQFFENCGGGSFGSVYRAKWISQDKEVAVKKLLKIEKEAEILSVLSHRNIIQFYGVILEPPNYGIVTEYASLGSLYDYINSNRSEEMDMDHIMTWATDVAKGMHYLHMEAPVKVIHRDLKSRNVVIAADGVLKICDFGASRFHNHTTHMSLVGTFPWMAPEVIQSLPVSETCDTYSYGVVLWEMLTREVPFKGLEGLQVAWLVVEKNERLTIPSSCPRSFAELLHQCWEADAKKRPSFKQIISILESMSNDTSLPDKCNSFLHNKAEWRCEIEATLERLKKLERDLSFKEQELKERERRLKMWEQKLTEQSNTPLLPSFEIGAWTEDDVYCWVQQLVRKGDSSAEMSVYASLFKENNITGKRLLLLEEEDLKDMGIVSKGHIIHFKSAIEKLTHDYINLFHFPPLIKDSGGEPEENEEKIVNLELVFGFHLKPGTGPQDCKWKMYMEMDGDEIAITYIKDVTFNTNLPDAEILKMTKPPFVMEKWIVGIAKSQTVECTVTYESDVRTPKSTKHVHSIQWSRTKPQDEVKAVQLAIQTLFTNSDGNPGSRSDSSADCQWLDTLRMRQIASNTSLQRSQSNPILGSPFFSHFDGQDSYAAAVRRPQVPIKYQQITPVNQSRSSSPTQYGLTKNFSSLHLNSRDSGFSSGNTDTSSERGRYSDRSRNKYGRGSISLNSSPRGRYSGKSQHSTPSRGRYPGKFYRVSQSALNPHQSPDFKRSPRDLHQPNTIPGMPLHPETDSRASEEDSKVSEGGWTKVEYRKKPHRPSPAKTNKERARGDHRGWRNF

Compound `CCCS(=O)(=O)Nc1ccc(F)c(C(=O)c2c[nH]c3ncc(-c4cccnc4)cc23)c1F` has an Activity [1] of 0.6% and an Activity [2] of 100%.

With `CCCS(=O)(=O)Nc1ccc(F)c(C(=O)c2ccc3[nH]c4ncc(-c5ccccc5F)cc4c3c2)c1F` the Activity [1] was 100% and the Activity [2] was 100%.

Compound `CCCS(=O)(=O)Nc1ccc(F)c(C(=O)c2ccc3[nH]c4ncc(-c5ccc(Cl)cc5)cc4c3c2)c1F` has an Activity [1] of 100% and an Activity [2] of 100%.

For `CCCS(=O)(=O)Nc1ccc(F)c(C(=O)c2ccc3[nH]c4ncc(-c5ccc(OCC(O)CO)cc5)cc4c3c2)c1F` (stereo unspecified), the Activity [1] was 100% and the Activity [2] was 96%.

`CCCS(=O)(=O)Nc1ccc(F)c(C(=O)c2n[nH]c3ncc(-c4ccc(S(=O)(=O)NCC(O)CO)cc4)cc23)c1F` (stereo unspecified) was tested, and the Activity [1] was 29% and the Activity [2] was 100%.

With `CCCS(=O)(=O)Nc1ccc(F)c(C(=O)c2c[nH]c3ncc(-c4ccc(O)cc4)cc23)c1F` the Activity [1] was 0.15% and the Activity [2] was 100%.

Work on `CCCS(=O)(=O)Nc1ccc(F)c(C(=O)c2n[nH]c3ncc(-c4ccc(O)cc4)cc23)c1F` yielded an Activity [1] of 0%.

`CCCS(=O)(=O)Nc1ccc(F)c(C(=O)c2ccc3[nH]c4ncc(-c5ccc(S(=O)(=O)NCC(O)CO)cc5)cc4c3c2)c1F` (stereo unspecified) gave an Activity [1] of 100% and an Activity [2] of 97%.

Compound `CCCS(=O)(=O)Nc1ccc(F)c(C(=O)c2ccc3[nH]c4ncc(-c5ccc(C(=O)NCC(O)CO)cc5)cc4c3c2)c1F` (stereo unspecified) has an Activity [1] of 88% and an Activity [2] of 100%.

Work on `CCCS(=O)(=O)Nc1ccc(F)c(C(=O)c2ccc3[nH]c4ncc(-c5ccc(C(=O)O)cc5)cc4c3c2)c1F` yielded an Activity [1] of 98% and an Activity [2] of 100%.

`NC(=O)c1ccc2[nH]c3ncnc(-c4ccccc4)c3c2c1` was tested, and the IC50 [3] was less than 1 µM.

`CCCS(=O)(=O)Nc1ccc(F)c(C(=O)c2ccc3[nH]c4ncc(-c5ccc(-c6nnn[nH]6)cc5)cc4c3c2)c1F` gave an Activity [1] of 100% and an Activity [2] of 100%.

With `CCCS(=O)(=O)Nc1ccc(F)c(C(=O)c2c[nH]c3ncc(-c4ccc(S(N)(=O)=O)cc4)cc23)c1F` the Activity [1] was 94% and the Activity [2] was 78%.

Compound `CCCS(=O)(=O)Nc1ccc(F)c(C(=O)c2ccc3[nH]c4ncc(-c5ccc(O)cc5)cc4c3c2)c1F` has an Activity [1] of 100% and an Activity [2] of 100%.

With `CCCS(=O)(=O)Nc1ccc(F)c(C(=O)c2ccc3[nH]c4ncc(-c5ccncc5)cc4c3c2)c1F` the Activity [1] was 94% and the Activity [2] was 91%.

With `CCCS(=O)(=O)Nc1ccc(F)c(C(=O)c2n[nH]c3ncc(-c4ccc(C(=O)NCC(O)CO)cc4)cc23)c1F` (stereo unspecified) the Activity [1] was 2.8% and the Activity [2] was 97%.

`CCCS(=O)(=O)Nc1ccc(F)c(C(=O)c2ccc3[nH]c4ncc(-c5ccc(C(N)=O)cc5)cc4c3c2)c1F` was tested, and the Activity [1] was 89% and the Activity [2] was 98%.

`CCCS(=O)(=O)Nc1ccc(F)c(C(=O)c2c[nH]c3ncc(-c4ccc(OCC(O)CO)cc4)cc23)c1F` (stereo unspecified) showed an Activity [1] of 0.35% and an Activity [2] of 99%.

`CCCS(=O)(=O)Nc1ccc(F)c(C(=O)c2ccc3[nH]c4ncc(-c5ccc(S(N)(=O)=O)cc5)cc4c3c2)c1F` showed an Activity [1] of 100% and an Activity [2] of 100%.
